“And” between values parts separate entries of the source, which are not always exact repeats. Equal entries are not always repeated. Where two headings read alike, the source gives them in different places. Positions of bridges follow the written chain, without caps; N, C: chain ends. Non-standard residues stand in square brackets, D forms with d. Residues, ends and D or L forms follow the SMILES beside them. *: point of attachment. Phe(3,4,5-F3) = N[C@@H](Cc1cc(F)c(F)c(F)c1)C(=O)O; Myristoyl = CCCCCCCCCCCCCC(=O)*; Nle = CCCC[C@H](N)C(=O)O; Abu = CC[C@H](N)C(=O)O; Aib = CC(C)(N)C(=O)O
How the values were obtained:
[1] = biological target: T1, human apelin receptor (Homo sapiens, UniProt P35414); test: DRx β-arrestin assay (PathHunter eXpress AGTRL1 CHO-K1); type: cell-based; parameters: host or cells: CHO-K1; details: for Kb: DRx β-Arrestin pA2
T1 sequence (P35414 1-380): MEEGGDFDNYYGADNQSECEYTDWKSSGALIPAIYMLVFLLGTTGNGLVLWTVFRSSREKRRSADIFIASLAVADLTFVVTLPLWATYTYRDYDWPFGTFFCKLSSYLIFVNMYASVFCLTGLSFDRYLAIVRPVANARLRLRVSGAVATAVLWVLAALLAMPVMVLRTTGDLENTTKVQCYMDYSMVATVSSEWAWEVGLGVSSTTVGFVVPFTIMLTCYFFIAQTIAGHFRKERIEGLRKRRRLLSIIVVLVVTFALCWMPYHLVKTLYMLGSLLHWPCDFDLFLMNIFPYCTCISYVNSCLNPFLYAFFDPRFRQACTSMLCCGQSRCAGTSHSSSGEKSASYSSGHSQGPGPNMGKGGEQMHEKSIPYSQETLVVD
Experimental: (§1) cAMP (cAMP Hunter™ eXpress AGTRL1 CHO-K1 GPCR Assay, DiscoverX Corporation, Ltd. Birmingham, UK) and β-arrestin (PathHunter® eXpress AGTRL1 CHO-K1 β-Arrestin GPCR Assay, DiscoverX Corporation, Ltd. Birmingham, UK) assays were performed according to the manufacturer's instructions. The cAMP assay measures the canonical signalling pathway through the G-protein. The β-arrestin assay measures the alternative signalling pathway and receptor internalisation.
For recruitment of β-arrestin, CHO-K1 cells artificially expressing the human apelin receptor were seeded in Cell Plating medium into 96-well plates and incubated for 48 hours at 37° C. in 5% CO2. Concentration response curves were constructed to test peptides (1 pmol/L-30 μmol/L) which were diluted in Cell Plating medium and added to the cells for 90 minutes at 37° C. If no response was obtained then test peptides were investigated as antagonists. […] Detection reagents were then added for a 2-hour incubation at room temperature. […] If no agonist response was obtained, test compounds were investigated for antagonist activity by repeating [Pyr]apelin-13 concentration response curves in the absence and presence of a single concentration (1-30 μmol/L of test peptide). Data were analysed as described for the cAMP assay using the Gaddum/Schild EC50 function in GraphPad Prism 6 to determine values of pA2.

[2] = biological target: T1, human apelin receptor; test: Cerep radioligand binding assay on CHO-K1 cells expressing the human apelin receptor; parameters: host or cells: CHO-K1
Experimental: Binding assays were performed by Cerep (Celle L'Evescault, France) on Chinese Hamster Ovary (CHO-K1) cells expressing the human apelin receptor. […] The results were expressed as a percent of control specific binding ((measured specific binding/control specific binding)×100) and as a percent inhibition of control specific binding (100−((measured specific binding/control specific binding)×100)) obtained in the presence of the test compounds. […] The inhibition constants (Ki) were calculated using the Cheng Prusoff equation (Ki=IC50/(1+(L/KD)), where L=concentration of radioligand in the assay, and KD=equilibrium dissociation constant of the radioligand for the receptor).

[3] = biological target: T1, human apelin receptor; test: DRx cAMP assay (cAMP Hunter eXpress AGTRL1 CHO-K1), forskolin-induced cAMP accumulation; type: cell-based; parameters: host or cells: CHO-K1; details: for Kb: DRx cAMP pA2, antagonism of [Pyr1]apelin-13 inhibition of forskolin-stimulated cAMP; for DRx cAMP pA2: antagonism of [Pyr1]apelin-13 inhibition of forskolin-stimulated cAMP
Experimental: Antagonist activity at the apelin receptor was measured in two assays.
as §1
Cells were then incubated with a mixture of Lysis Buffer, cAMP Buffer D and Detection Reagents for 1 hour at room temperature, followed by a 3 hour incubation with cAMP Reagent A at room temperature. Chemiluminescence was read using the LumiLITE™ Microplate Reader (DiscoverX). Concentration-response data for agonists, measured in relative light units (RLU), were analysed using a 4 parameter logistic equation in GraphPad Prism 6 (La Jolla, CA, USA) to determine values of potency expressed as the pD2 value (negative logo of the EC50 (where EC50 is the concentration producing half maximal response)), and maximum response (EMAX). Mean data from replicate experiments were normalised as percentage inhibition of forskolin-stimulated cAMP production.

[4] = biological target: T1, human apelin receptor; test: Competition binding in homogenate of human left ventricle (HLV)
Experimental: Equilibrium was broken by centrifugation (20,000 g for 10 min, 4° C.). Pellets were washed with Tris-HCl buffer (50 mmol/L, pH 7.4, 4° C.), re-centrifuged and bound radioactivity in the final pellets counted. Data from triplicate experiments were analysed using the iterative non-linear curve fitting programs EBDA and LIGAND (KELL package, Biosoft, UK) or GraphPad Prism 6 to derive values of affinity (expressed as either the equilibrium dissociation constant KD or the negative log10 of the dissociation constant, pKi±sem) and receptor density (BMAX±sem in fmoles bound per mg protein).

[5] = test system: glioblastoma; details: ref. [60], cited from earlier work; for anti-tumor / anti-cancer effects in glioblastoma: models of glioblastoma
[6] = test system: human forearm; test: Human forearm studies; type: in vivo
[7] = biological target: T1, human apelin receptor; details: human cardiac tissue, ref. [15]; cited from earlier work
[8] = test system: endothelium-denuded saphenous vein; details: human tissue, ref. [15]; cited from earlier work
[9] = [Glp65,Nle75,Tyr77][125I]apelin-13, read-out: Ki (binding affinity at the apelin receptor, Cerep)

For `CCCC[C@H](NC(=O)[C@H](CCCNC(=N)N)NC(=O)C(C)(C)NC(=O)[C@H](CCCNC(=N)N)NC(=O)[C@H](CS)NC(=O)[C@H](Cc1c[nH]cn1)NC(=O)[C@H](CCCCN)NC(=O)[C@H](CC)NC(=O)[C@H](CCCC)NC(=O)[C@H](CCCNC(=N)N)NC(=O)[C@@H]1CCCN1C(=O)[C@H](CCCNC(=N)N)NC(=O)[C@@H](N)CS)C(=O)N[C@@H](Cc1cc(F)c(F)c(F)c1)C(=O)O` [MM298, CRPR-Nle-Abu-KHCR-Aib-R-Nle-(3,4,5-trifluorophenylalanine)] (H-CRPR[Nle][Abu]KHCR[Aib]R[Nle][Phe(3,4,5-F3)]-OH), which Kb [1] is on record?
Its Kb is 17.4 nM.

And the “DRx β-Arrestin pA2” value ([1]; cho-k1 cells, 90 min)?
The value was “pA2 = 7.76”.

What about the Ki [2, 9] of the same compound?
The Ki was 16 nM.

What about the Kb [3] of the same compound?
Its Kb is 25.7 nM and 75.9 nM.

Which “DRx β-Arrestin pA2” value [1] does the source give for `CCCC[C@H](NC(=O)[C@H](CCCNC(=N)N)NC(=O)C(C)(C)NC(=O)[C@H](CCCNC(=N)N)NC(=O)[C@H](CS)NC(=O)[C@H](Cc1c[nH]cn1)NC(=O)[C@H](CCCCN)NC(=O)[C@H](CS)NC(=O)[C@H](CCCC)NC(=O)[C@H](CCCNC(=N)N)NC(=O)[C@@H]1CCCN1C(=O)[C@H](CCCNC(=N)N)NC(=O)[C@@H](N)CS)C(=O)N[C@@H](Cc1cc(F)c(F)c(F)c1)C(=O)O` [MM193, CRPR-Nle-CKHCR-Aib-R-Nle-(3,4,5-trifluorophenylalanine)] (H-CRPR[Nle]CKHCR[Aib]R[Nle][Phe(3,4,5-F3)]-OH) here?
Its value is 7.68.

And the “antagonism of [pyr1]apelin-13 mediated β-arrestin recruitment” value ([1]; 1 μM, FIG. 1a)?
Its value is “antagonised by addition of MM193 in a competitive manner”.

And the Kb [1]?
Its Kb is 20.9 nM.

And the “DRx β-Arrestin pA2” value ([1]; cho-k1 cells, 90 min)?
Its value is “pA2 = 7.68”.

And the Ki ([4]; read-out: HLV pKi (converted))?
The Ki was 759 nM.

And the Ki [2, 9]?
Its Ki is 19 nM.

And the “anti-tumor / anti-cancer effects in glioblastoma” value [5]?
The value was “significant anti-cancer effects”.

What about the “antagonism of [pyr1]apelin-13 inhibition of forskolin stimulated cAMP accumulation” value ([3]; 1 μM, FIG. 1b) of the same compound?
Its value is “antagonised by addition of MM193 in a competitive manner”.

And the Kb [3]?
The Kb was 42.7 nM and 77.6 nM.

What about the “DRx cAMP pA2” value [3] of the same compound?
The value was 7.37.

For `CCCC[C@H](NC(=O)[C@H](CCCNC(=N)N)NC(=O)C(C)(C)NC(=O)[C@H](CCCNC(=N)N)NC(=O)[C@H](CC)NC(=O)[C@H](Cc1c[nH]cn1)NC(=O)[C@H](CCCCN)NC(=O)[C@H](CS)NC(=O)[C@H](CCCC)NC(=O)[C@H](CCCNC(=N)N)NC(=O)[C@@H]1CCCN1C(=O)[C@H](CCCNC(=N)N)NC(=O)[C@@H](N)CS)C(=O)N[C@@H](Cc1cc(F)c(F)c(F)c1)C(=O)O` [MM299, CRPR-Nle-CKH-Abu-R-Aib-R-Nle-(3,4,5-trifluorophenylalanine)] (H-CRPR[Nle]CKH[Abu]R[Aib]R[Nle][Phe(3,4,5-F3)]-OH), which Kb [1] is on record?
The Kb was 7.94 nM and 2.95 nM.

And the Ki [2, 9]?
The Ki was 6.1 nM.

What about the Kb [3] of the same compound?
Its Kb is 47.9 nM and 112 nM.

For `CC(C)C[C@@H]1NC(=O)[C@H](CCCNC(=N)N)NC(=O)[C@@H]2CCCN2C(=O)[C@H](CCCNC(=N)N)NC(=O)[C@@H](NC(=O)[C@H](Cc2c[nH]cn2)NC(=O)[C@H](CCCCN)NC(=O)[C@@H]2CSSC[C@H](N)C(=O)N[C@@H](CCCNC(=N)N)C(=O)N3CCC[C@H]3C(=O)N[C@@H](CCCNC(=N)N)C(=O)N[C@@H](CC(C)C)C(=O)N2)CSSC[C@@H](C(=O)O)NC1=O` [MM54, cyclo(1-6)CRPRLC-KH-cyclo(9-14)CRPRLC] (H-CRPRLCKHCRPRLC-OH; disulfide 1-6, 9-14; N-terminus and C-terminus assumed), which “DRx β-Arrestin pA2” value [1] is on record?
Its value is 6.63.

What about the Kb [1] of the same compound?
The Kb was 117 nM and 234 nM.

What about the Ki ([4]; HLV pKi) of the same compound?
Its Ki is 275 nM and 355 nM.

What about the Ki ([2]; Ki (binding affinity at the apelin receptor, Cerep), [Glp65,Nle75,Tyr77][125I]apelin-13) of the same compound?
Its Ki is 82 nM.

What about the “combination with the anti-cancer compound tomozolomide” value ([5]; model of glioblastoma) of the same compound?
The value was “synergistic properties”.

And the “anti-tumor / anti-cancer effects in glioblastoma” value [5]?
The value was “anti-tumor properties”.

And the “functional activity in human forearm studies” value [6]?
Its value is “functional agonist activity indicated by vasodilation”.

Which “DRx β-Arrestin pA2” value [1] does the source give for `CCCCCCCCCCCCCC(=O)N[C@@H](CS)C(=O)N[C@@H](CCCNC(=N)N)C(=O)N1CCC[C@H]1C(=O)N[C@@H](CCCNC(=N)N)C(=O)N[C@@H](CCCC)C(=O)N[C@@H](CS)C(=O)N[C@@H](CCCCN)C(=O)N[C@@H](Cc1c[nH]cn1)C(=O)N[C@@H](CS)C(=O)N[C@@H](CCCNC(=N)N)C(=O)NC(C)(C)C(=O)N[C@@H](CCCNC(=N)N)C(=O)N[C@@H](CCCC)C(=O)N[C@@H](Cc1cc(F)c(F)c(F)c1)C(=O)O` [MM300, Myristoyl-CRPR-Nle-CKHCR-Aib-R-Nle-(3,4,5-trifluorophenylalanine)] (Myristoyl-CRPR[Nle]CKHCR[Aib]R[Nle][Phe(3,4,5-F3)]-OH; C-terminus assumed) here?
The value was 8.96.

What about the Kb [1] of the same compound?
Its Kb is 1.1 nM and 3.16 nM.

What about the “bias between cAMP and β-arrestin pathway inhibition” value ([1]; comparison of β-arrestin and cAMP pA2 of Table 3) of the same compound?
The value was “bias towards either C-AMP”.

What about the Ki [2, 9] of the same compound?
The Ki was 13 nM.

And the “DRx cAMP pA2” value [3]?
The value was 9.66.

Which “competition for binding with [125I]-(Pyr1)apelin-13 in the left ventricle” value [7] does the source give for “Apelin-13(F13A): apelin-13 analogue reported as a functional antagonist, may act as an apelin receptor agonist in vitro” here?
The value was “competes for binding”.

And the “constriction of endothelium-denuded saphenous vein” value [8]?
Its value is “effectively constricts”.

Reference: patent US11976137B2, “Compounds for use as apelin receptor antagonists” (Cambridge Enterprise Limited, priority 2018, dated 2024)
